Measurements as given in patent US20260115177A1, “MEDICINAL PRODUCTS AND METHODS FOR THE ALLEVIATION OF CANCER IMMUNOTHERA-PY-ASSOCIATED CYTOKINE RELEASE SYNDROME” (POOLBEG PHARMA (UK) LIMITED, priority 2023, published 2026).

How the values were obtained:
Format in all cases: cell-based, human
CAR T cells = assay: CAR T cell proliferation in CAR T cell:cancer cell co-culture (Cell Trace Violet, flow cytometry); conditions: CAR T:tumour cell co-culture 1:1; concentrations of Table 2
Description: CAR T cell proliferation is confirmed by Cell Trace™ Violet staining of CAR T cells (staining agent having been added prior to addition of the T cells to the co-cultures with tumour cells). Staining may be observed, following co-culture, via flow cytometry.
(§1) UR-13870, Ralimetinib or Acumapimod are each added to a culture of CD19+ cancer cells (using a micropipette to transfer the correct volume to achieve the desired final concentration in Table 2).
(§2) CAR T cells are then added to the same culture 5-10 minutes later. In brief, CAR T cell concentrations per ml are determined and used to aliquot the desired number of CAR T cells into the culture to achieve the described 1:1 CAR T to cancer cell ratio.
(§3) The co-culture containing CAR T cells and tumour cells is swirled gently to ensure homogenous dispersion of cells throughout the vessel. The resultant co-culture is incubated for 24 to 96 hours in a closed incubator at 37° C. with 5% CO2 and a suitably humid atmosphere.

HUVEC endothelial cells [1] = assay: IL-6 and IL-8 ELISA of HUVEC cells treated with sCART-mono supernatant; conditions: 24 hr, concentrations of Table 2
Description: (§4) With reference to FIG. 13 of the accompanying drawings, a co-culture (100) is established using a standard cell culture transwell dish, including a first compartment (101), containing CAR T cells and cancer cells (at a 1:1 ratio), which is separated from a second compartment (102), containing monocytes, by a semi-permeable membrane (103) composed of tissue-culture treated polyethylene terephthalate with a 0.4 μm pore size.
(§5) Each of UR-13870, Acumapimod and Ralimetinib are administered to the co-culture following a procedure analogous to that described in Example 2 above (at the concentrations as shown in Table 2 above).
(§6) The co-culture is incubated at 37° C., 5% CO2 and a suitably humid environment for 24 hours. On completion, the transwell insert is removed and supernatant is isolated. Cells and debris are removed from the supernatant by exposing the container to a centripetal force of 400 G and gently pipetting the supernatant into a new container without disturbing the cell pellet at the bottom of the previous container.
(§7) Prior to adding the p38 inhibitors and sCART-mono, endothelial cells are incubated overnight at 37° C. and 5% CO2 in a suitably humid environment to allow the cells to adhere fully to the tissue culture dish.
Supernatant levels of IL-6 and IL-8 are determined following 24 hr treatment with sCART-mono and the p38 MAPK inhibitors by ELISA.

HUVEC endothelial cells [2] = assay: QPCR of VCAM1, ICAM1 and IL-6 in HUVEC cells treated with sCAR; conditions: 24 hours
Description: (§8) In like manner and also in Example 3 below, sCAR (or smCAR) is added to endothelial (HUVEC) cells, available from the American Type Culture Collection, and using an equivalent protocol to the treatment of THP-1 cells (but with individually optimised conditions, such as the concentration of sCAR used), following which IL-6 release and IL-8 release are observed. Pro-inflammatory cytokines IL-6 and IL-8 are measured using an enzyme-linked immunosorbent assay (ELISA) and IL-6, ICAM1 and VCAM1 are measured by quantitative PCR (QPCR, for which a kit is suitably obtainable from Thermo Fisher Scientific of Kingfisher Dr, Swindon SN3 5BZ, UK).
(§9) sCAR (or smCAR), produced as described in Example 1 above, is added to a monoculture of HUVEC endothelial cells in the presence of UR-13870, Ralimetinib or Acumapimod at each of the concentrations shown in Table 2 above, at 37° C., 5% CO2 and a suitably humid environment for 24 hours.

HUVEC endothelial cells [3] = assay: QPCR of ICAM1 in HUVEC cells treated with sCART-mono supernatant; conditions: 24 hours
Description: as §4, §5, §6, §7
Reduced endothelial cell activation is evidenced by reduced ICAM1 expression in response to treatment with UR-13870, Acumapimod and Ralimetinib.

CD19+ cancer cells = assay: CAR T cell killing of tumour cells in 24-hour co-culture (flow cytometry); conditions: high dose only, CAR T to cancer cell ratio 1:1
Source text: Raji immortalized human B cell line CD19-expressing cancer cells (available from the American Type Culture Collection) are acquired and stable transfection of the Raji cell line is generated with an mCherry reporter protein to facilitate identification of the cancer cells within co-cultures by detection of the mCherry protein fluorescence by flow cytometry.
as §1, §2, §3
Tumour cell death is observed by examining relative CAR T cell:tumour cell numbers by flow cytometry following 24 hour co-culture, as shown in FIG. 7.

HUVEC endothelial cells [4] = assay: IL-6 and IL-8 ELISA of HUVEC endothelial cells treated with sCAR; conditions: sCAR stimulation, 24 hours; concentrations of Table 2
Description: as §8, §9
Supernatant levels of IL-6 and IL-8 from the HUVEC endothelial cell monoculture with sCAR (or smCAR) are determined by ELISA.

THP-1 monocytes = assay: IL-6 ELISA of THP-1 monocytes treated with sCAR; conditions: sCAR stimulation, 24 hours; concentrations of Table 2
Description: In Example 3 below, sCAR (or smCAR) is added using a micropipette to an in vitro culture of monocyte cells of the human monocytic cell line THP-1, available from the American Type Culture Collection. The culture is incubated in a closed incubator at 37° C. with 5% CO2 and a suitably humid atmosphere for approximately 24 hours, following which cytokine release is observed. p38 MAPK activation and cytokine release are confirmed by evaluation of the presence of IL-6 in THP-1 cells using an enzyme-linked immunosorbent assay (ELISA; for which a kit is suitably obtainable from Thermo Fisher Scientific of Kingfisher Dr, Swindon SN3 5BZ, UK).
(i) Monocytes sCAR (or smCAR), produced as described in Example 1 above, is added to a monoculture of THP-1 monocytes in the presence of UR-13870, Ralimetinib or Acumapimod at each of the concentrations shown in Table 2 above at 37° C., 5% CO2 and a suitably humid environment for 24 hours.
Supernatant levels of IL-6 from the THP-1 monocyte monoculture with sCAR (or smCAR) are determined by ELISA.

OCCCn1cc2c(-c3ccc(F)cc3)c(-c3ccncc3)c(-c3ccc(F)cc3)nc2n1 [UR-13870, 6-bis(4-fluorophenyl)-5-(4-pyridinyl)-2Hpyrazolo[3,4-b]pyridine-2-propanol]
CAR T cell proliferation (Cell Trace Violet staining) (CAR T cells): maintain CAR T cell proliferation | IL-6 levels in supernatant (HUVEC endothelial cells [1]): reduced | IL-8 levels in supernatant (HUVEC endothelial cells [1]): (albeit non-significant) downward trend | ICAM1 mRNA levels (HUVEC endothelial cells [2]): significantly reduce | IL-6 mRNA levels (HUVEC endothelial cells [2]): significantly reduce | VCAM1 mRNA levels (HUVEC endothelial cells [2]): reduced, albeit non-significantly | ICAM1 expression (endothelial cell activation) (HUVEC endothelial cells [3]): reduced | CAR T cell-induced cancer cell death (percentage of residual tumour cells in the co-culture) (CD19+ cancer cells): maintain CAR T cell-induced cancer cell death | IL-6 secretion by HUVEC cells (HUVEC endothelial cells [4]): significantly reduce | IL-8 supernatant level, HUVEC cells (HUVEC endothelial cells [4]): reduced | IL-6 secretion by THP-1 monocytes (THP-1 monocytes): significantly reduce
